Measurements taken from paper PMC11124852 (Pharmaceutics, 2024).
In brackets after ≈: the same amount, converted by molar mass. Several values for one entry are separate records, joined by “and”; a condition that tells them apart may be missing. Identical values can stand only once.

Experiments:
[1] = target: SARS-CoV-2 spike RBD to human ACE2 (Severe acute respiratory syndrome coronavirus 2, UniProt P0DTC2); test: biochemical; assay type: binding, SARS-CoV-2 / human; conditions: for IC50: IC50 (µM)
[2] = system: mouse macrophage cell line J774.2; test: In vitro cytotoxicity, MTT method; conditions: for SI: selectivity index CC50/IC50
Experimental: (§1) The mouse macrophage cell line J774.2 (ATCC® TIB-67) was used for the evaluation of the in vitro cytotoxicity. Cells were cultured in RPMI medium supplemented with 10% SFB, […], and glutamine (2 mM) at 37 °C and in an atmosphere of 5% CO2. The medium was changed at intervals of every 2 to 3 days. For the cytotoxicity assays, 1 × 10^6 cells were incubated with different concentrations of the compounds (0.78 to 200 µM) at 37 °C for 48 h in an atmosphere of 5% CO2. Cells in the presence of the maximum concentration of DMSO (0.2%) were included as a negative control. The metabolic activity of the cells was determined using the MTT method. The percentage of cell viability was calculated, and the mean cytotoxic concentration (CC50) was determined via a Probit analysis. Three independent assays were performed in triplicate each. Finally, the selectivity index (SI) was calculated using the following formula CC50/IC50.

[3] = In vitro cytotoxicity, MTT method; conditions: mouse, J774.2 macrophage cells, CC50 (µM), macrophage cell line J774.2, 48 h, MTT; means of three experiments
Experimental: as §1

rats = conditions: concentrations of 0.03, 0.3, and 3%; cited from earlier work
S protein = conditions: block the S protein and inhibit protein-mediated intercellular fusion; cited from earlier work
meiobenthic nematodes = conditions: cited from earlier work
[4] = target: S protein with the ACE2 host receptor; conditions: cell-free ELISA-type assay; cited from earlier work
[5] = system: S protein and its host cell receptor ACE2; conditions: cited from earlier work
[6] = system: S protein and its host cell receptor ACE2; conditions: cited from earlier work; remark: listed apart in the source

For `O=C(Nc1ccc2c(O)cc(S(=O)(=O)O)cc2c1)Nc1ccc2c(O)cc(S(=O)(=O)O)cc2c1` [DRI-2, c12c(ccc(c1)NC(=O)Nc1cc3c(cc1)c(cc(c3)S(=O)(=O)O)O)c(cc(c2)S(=O)(=O)O)O], the inhibition at 50 µM [1] was 90.8 ± 1.7%, the IC50 [1] was 8.84 ± 4.3 µM and the SI [2] was 22.6 and 22.62.

For `CCOc1ccc(NS(=O)(=O)c2ccc(NC(=O)c3ccc(-c4ccccc4)cc3)cc2)cc1` [DRI-4, S(=O)(=O)(Nc1ccc(cc1)OCC)c1ccc(NC(=O)c2ccc(cc2)c2ccccc2)cc1], the inhibition at 50 µM [1] was 76.4 ± 1%, the IC50 [1] was 24.6 ± 2.5 µM and the CC50 at 48 h [3] was greater than 200 µM. The SI [2] was 8.14.

For `CCN(Cc1cccc(S(=O)(=O)O)c1)c1ccc(C(=C2C=CC(=[N+](CC)Cc3cccc(S(=O)(=O)O)c3)C=C2)c2ccccc2)cc1` [DRI-3, guinea green B], the inhibition at 50 µM [1] was 99.65 ± 0.25%, the IC50 [1] was 2.14 ± 0.97 µM and the SI [2] was 93.4 and 93.45. For the same compound, the toxicity in rats (rats) was “initial growth depression in rats, as well as the appearance of malignant tumors”.

For `CCC(C)n1ncn(-c2ccc(N3CCN(c4ccc(OCC5COC(Cn6cncn6)(c6ccc(Cl)cc6Cl)O5)cc4)CC3)cc2)c1=O` (stereo not drawn) [itraconazole], the IC50 (S protein) is listed as 0.45 µM.

In the case of `C[C@]12CC[C@@H]3c4ccc(OC(=O)c5ccccc5)cc4CC[C@H]3[C@@H]1CC[C@@H]2O` [estradiol benzoate], the IC50 (S protein) is given as 1.02 µM and the “concentration from which significant toxicity starts” value (meiobenthic nematodes) is given as no less than 4.3 pg/mL.

For `O=C(Nc1ccc2cc(S(=O)(=O)O)cc(O)c2c1)c1ccc(-c2ccc(C(=O)Nc3ccc4cc(S(=O)(=O)O)cc(O)c4c3)cc2)cc1` [DRI-C91005], the IC50 [4] is listed as 0.16 µM.

For `O=C(Nc1ccc2c(O)c(/N=N/c3ccc(/N=N/c4ccc(S(=O)(=O)[O-])cc4)cc3)c(S(=O)(=O)[O-])cc2c1)c1ccccc1.[Na+].[Na+]` [DRI-1, [Na+].[Na+].c1(/N=N/c2ccc(cc2)/N=N/c2c(cc3c(c2O)ccc(c3)NC(=O)c2ccccc2)S(=O)(=O)[O-])ccc(cc1)S(=O)(=O)[O-]], the inhibition at 50 µM [1] was 90.59 ± 0.54%, the IC50 [1] was 13 ± 0.71 µM and the CC50 at 48 h [3] was 94.5 µM. It also gave a CC50 ([2]; macrophage cell line J774.2, 48 h, MTT, means of three experiments) of 94.5 ± 0.96 µM and an SI [2] of 7.25.

For `CS(=O)(=O)c1cccc(C[C@H](NC(=O)c2c(Cl)cc3c(c2Cl)CCN(C(=O)c2ccc4ccoc4c2)C3)C(=O)O)c1` [sodium lifitegrast], the Kd [5] is given as 0.00192 µM.

Compound `CC(=O)Nc1ccc(OS(=O)(=O)c2ccc3c4c(cccc24)C(=O)N3)c2ccccc12` [DRI-5, CC(=O)Nc1ccc(OS(=O)(=O)c2ccc3NC(=O)c4cccc2c34)c2ccccc12] has an inhibition at 50 µM [1] of 69.9 ± 1.2%, an IC50 [1] of 13.7 ± 0.12 µM and a CC50 at 48 h [3] of 126 ± 2.3 µM. The SI [2] was 9.21.

In the case of `CC1=C(C)C(=O)O[C@@H]([C@@H](C)[C@@]2(O)CC[C@H]3[C@@H]4[C@@H]5O[C@@H]5[C@@]5(O)CC=CC(=O)[C@]5(C)[C@H]4CC[C@@]32C)C1` [withanone], the IC50 [6] is given as 0.33 ng/mL (≈ 0.701 nM).

For `COc1ccc2c(O[C@@H]3C[C@H]4C(=O)N[C@]5(C(=O)NS(=O)(=O)C6CC6)C[C@H]5/C=C\CCCCN(C)C(=O)[C@@H]4C3)cc(-c3nc(C(C)C)cs3)nc2c1C` [simeprevir], the Kd [5] is listed as 0.812 µM.
